This passage reports EC50 results from publication PMC5231396 (ACS chemical neuroscience, 2016).

By EC50 is commonly meant the concentration that produces a half-maximal response. High values mean a less potent agent, low ones a more potent agent.

The target in this assay is T1, M1 muscarinic acetylcholine receptor (Mus musculus, UniProt P12657).
T1 sequence (P12657 1-460): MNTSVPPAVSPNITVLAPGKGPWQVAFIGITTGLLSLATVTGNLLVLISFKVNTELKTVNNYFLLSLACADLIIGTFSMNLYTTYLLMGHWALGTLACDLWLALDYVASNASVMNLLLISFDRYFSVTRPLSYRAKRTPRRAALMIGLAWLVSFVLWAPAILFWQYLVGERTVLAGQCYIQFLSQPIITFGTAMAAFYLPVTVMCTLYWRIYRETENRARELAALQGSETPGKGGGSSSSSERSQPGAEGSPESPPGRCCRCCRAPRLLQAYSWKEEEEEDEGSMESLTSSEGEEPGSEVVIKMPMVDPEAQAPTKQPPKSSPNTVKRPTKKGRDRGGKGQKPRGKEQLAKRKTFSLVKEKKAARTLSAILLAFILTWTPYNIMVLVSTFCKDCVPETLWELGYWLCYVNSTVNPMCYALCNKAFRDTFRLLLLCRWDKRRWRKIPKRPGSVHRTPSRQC
In words: previously published M1 PAM compared side-by-side with VU6004256. Format: cell-based.

Each structure is given as a SMILES string.

The compound `Cn1cc(-c2ccc(CN3Cc4ncccc4C3=O)c(F)c2)cn1` [compound 1, VU0453595] gave an EC50 of 3.22 µM.
